Reference: article PMC7591811 (Journal of Pharmaceutical Analysis, 2020)

Legend:
BZD (peripheral) = BZD (peripheral) (Rattus norvegicus, UniProt P16257); assay: Lead profiling screen; format: binding; details: for inhibition at 10 µM: BZD (peripheral) / TSPO, Rat
BZD (central) = assay: Lead profiling screen; format: binding; details: 10 μM, Rat
Adenosine A3 = molecular target: T1, Adenosine A3 (Homo sapiens, UniProt P0DMS8); assay: Lead profiling screen; format: binding; details: for inhibition at 10 µM: Adenosine A3, Human
T1 sequence (P0DMS8 1-318): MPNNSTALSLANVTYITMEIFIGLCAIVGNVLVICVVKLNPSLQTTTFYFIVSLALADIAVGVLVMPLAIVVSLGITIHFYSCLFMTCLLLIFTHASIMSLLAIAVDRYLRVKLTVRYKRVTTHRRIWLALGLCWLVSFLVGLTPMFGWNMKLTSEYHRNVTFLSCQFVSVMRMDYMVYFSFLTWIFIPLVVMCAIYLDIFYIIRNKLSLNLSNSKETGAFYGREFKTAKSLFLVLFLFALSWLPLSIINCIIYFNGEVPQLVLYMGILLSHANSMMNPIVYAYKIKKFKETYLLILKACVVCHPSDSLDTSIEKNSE

[1] = tested on: Cl^- channel (GABA gated); assay: Lead profiling screen; format: binding; details: 10 μM, Rat
Melatonin MT1 = Melatonin MT1 (Homo sapiens, UniProt P48039); assay: Lead profiling screen; format: binding
AR = molecular target: T2, AR (Homo sapiens, UniProt P10275); assay: Lead profiling screen; format: binding; details: Rat
T2 sequence (P10275 1-920): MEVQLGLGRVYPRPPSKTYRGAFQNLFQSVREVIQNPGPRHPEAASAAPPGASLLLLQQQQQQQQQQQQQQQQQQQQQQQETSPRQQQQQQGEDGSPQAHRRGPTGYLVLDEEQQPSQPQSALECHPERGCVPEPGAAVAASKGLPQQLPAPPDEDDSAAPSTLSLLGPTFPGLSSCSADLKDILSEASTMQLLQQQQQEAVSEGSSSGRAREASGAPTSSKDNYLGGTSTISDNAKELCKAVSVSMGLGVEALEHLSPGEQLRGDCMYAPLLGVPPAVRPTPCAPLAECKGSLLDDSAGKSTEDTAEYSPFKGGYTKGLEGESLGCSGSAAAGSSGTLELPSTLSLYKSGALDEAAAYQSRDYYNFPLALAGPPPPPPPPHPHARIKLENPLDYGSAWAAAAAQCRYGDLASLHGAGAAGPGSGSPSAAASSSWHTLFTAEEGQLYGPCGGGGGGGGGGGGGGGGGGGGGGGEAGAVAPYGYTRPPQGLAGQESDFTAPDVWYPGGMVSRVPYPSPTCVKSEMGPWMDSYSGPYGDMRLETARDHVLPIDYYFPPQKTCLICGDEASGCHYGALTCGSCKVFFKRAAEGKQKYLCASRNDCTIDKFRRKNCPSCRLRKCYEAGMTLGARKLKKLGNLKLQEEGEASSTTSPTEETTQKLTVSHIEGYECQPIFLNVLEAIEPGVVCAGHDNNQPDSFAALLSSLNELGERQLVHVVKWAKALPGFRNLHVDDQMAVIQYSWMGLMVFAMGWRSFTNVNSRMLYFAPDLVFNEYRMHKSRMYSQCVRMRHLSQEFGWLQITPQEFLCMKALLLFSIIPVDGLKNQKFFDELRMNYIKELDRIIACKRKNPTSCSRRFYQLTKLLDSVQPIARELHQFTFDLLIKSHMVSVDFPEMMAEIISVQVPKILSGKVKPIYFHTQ

Melatonin MT2 = molecular target: T3, Melatonin MT2 (Homo sapiens, UniProt P49286); assay: Lead profiling screen; format: binding; details: for inhibition at 10 µM: Melatonin MT2, Human
T3 sequence (P49286 1-362): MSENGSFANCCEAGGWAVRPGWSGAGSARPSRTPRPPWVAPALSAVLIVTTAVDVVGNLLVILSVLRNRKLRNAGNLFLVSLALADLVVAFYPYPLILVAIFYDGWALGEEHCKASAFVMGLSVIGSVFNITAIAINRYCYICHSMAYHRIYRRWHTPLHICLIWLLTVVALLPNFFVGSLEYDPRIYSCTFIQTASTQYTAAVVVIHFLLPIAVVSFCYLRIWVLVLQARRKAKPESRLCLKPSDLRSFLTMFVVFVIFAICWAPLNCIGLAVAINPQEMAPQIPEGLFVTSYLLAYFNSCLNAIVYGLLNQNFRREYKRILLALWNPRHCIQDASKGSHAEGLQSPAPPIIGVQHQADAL

[2] = Nonhuman primate [18F]RAGER PET, melatonin blocking and displacement; details: NHP
[3] = [18F]RAGER autoradiography, competitive binding with melatonin; parameters: species or system human; details: 10 μM melatonin; control, AD and DLB + AD brain tissue sections
[4] = Rodent [18F]RAGER PET, melatonin blocking; details: 5 μg/kg i.v. 10 min prior to [18F]RAGER, healthy rodents
UT = molecular target: T4, UT (Homo sapiens, UniProt Q9UKP6); assay: Lead profiling screen; format: binding; details: for inhibition at 10 µM: UT, Human
T4 sequence (Q9UKP6 1-389): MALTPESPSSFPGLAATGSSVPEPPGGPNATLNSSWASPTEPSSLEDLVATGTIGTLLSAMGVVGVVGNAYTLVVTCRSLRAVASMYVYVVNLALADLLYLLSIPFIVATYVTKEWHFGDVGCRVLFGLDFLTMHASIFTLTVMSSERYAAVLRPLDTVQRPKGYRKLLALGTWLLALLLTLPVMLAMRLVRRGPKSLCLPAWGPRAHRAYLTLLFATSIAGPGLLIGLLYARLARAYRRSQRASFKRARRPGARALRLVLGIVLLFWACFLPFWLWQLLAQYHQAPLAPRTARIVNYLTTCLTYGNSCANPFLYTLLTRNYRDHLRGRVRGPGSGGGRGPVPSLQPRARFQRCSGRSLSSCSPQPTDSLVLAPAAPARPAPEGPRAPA

ctRAGE = details: read-out: ctRAGE Kd; cited from earlier work
Cyclooxygenase 1 = Cyclooxygenase 1 (Homo sapiens, UniProt P23219); assay: Lead profiling screen, enzyme assay; format: biochemical
[5] = molecular target: Serotonin (5-Hydroxytryptamine) 5-HT2B (Homo sapiens, UniProt P41595); assay: Lead profiling screen; format: binding; details: for inhibition at 10 µM: 5-HT2B, Human
[6] = molecular target: Serotonin (5-Hydroxytryptamine) 5-HT2A (Homo sapiens, UniProt P28223); assay: Lead profiling screen; format: binding
[7] = molecular target: Norephinephrine transporter (Homo sapiens, UniProt P23975); assay: Lead profiling screen; format: binding
EP2 = EP2 (Homo sapiens, UniProt P43116); assay: Lead profiling screen; format: binding
Androgen (Testosterone) = molecular target: T5, Androgen (Testosterone) (Homo sapiens, UniProt P10275); assay: Lead profiling screen; format: binding
T5 sequence (P10275 1-920): T2 sequence (P10275 1-920)

[8] = molecular target: Transporter, Dopamine (DAT) (Homo sapiens, UniProt Q01959); assay: Lead profiling screen; format: binding
[9] = cited from earlier work
[10] = molecular target: Peripheral benzodiazepine receptor (Rattus norvegicus, UniProt P16257); assay: Lead profiling screen, RAGER; format: binding
Peripheral benzodiazepine receptor, sequence (P16257 whole entry): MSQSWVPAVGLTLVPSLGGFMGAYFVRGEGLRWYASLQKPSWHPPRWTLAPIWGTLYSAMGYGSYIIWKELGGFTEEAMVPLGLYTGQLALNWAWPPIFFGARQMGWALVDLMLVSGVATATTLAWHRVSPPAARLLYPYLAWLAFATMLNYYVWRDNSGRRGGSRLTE

BZD (peripheral), sequence (P16257 whole entry): as above
Melatonin MT1, sequence (P48039 whole entry): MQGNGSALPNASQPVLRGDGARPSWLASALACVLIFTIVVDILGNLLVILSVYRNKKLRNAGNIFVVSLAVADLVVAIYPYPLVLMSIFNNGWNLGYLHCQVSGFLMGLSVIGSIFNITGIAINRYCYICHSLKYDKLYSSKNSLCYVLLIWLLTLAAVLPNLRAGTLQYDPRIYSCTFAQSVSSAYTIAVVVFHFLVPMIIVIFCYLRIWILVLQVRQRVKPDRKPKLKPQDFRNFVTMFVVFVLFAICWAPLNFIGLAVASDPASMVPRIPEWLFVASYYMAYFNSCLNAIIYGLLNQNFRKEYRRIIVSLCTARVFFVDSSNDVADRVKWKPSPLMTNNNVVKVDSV
Serotonin (5-Hydroxytryptamine) 5-HT2B, sequence (P41595 whole entry): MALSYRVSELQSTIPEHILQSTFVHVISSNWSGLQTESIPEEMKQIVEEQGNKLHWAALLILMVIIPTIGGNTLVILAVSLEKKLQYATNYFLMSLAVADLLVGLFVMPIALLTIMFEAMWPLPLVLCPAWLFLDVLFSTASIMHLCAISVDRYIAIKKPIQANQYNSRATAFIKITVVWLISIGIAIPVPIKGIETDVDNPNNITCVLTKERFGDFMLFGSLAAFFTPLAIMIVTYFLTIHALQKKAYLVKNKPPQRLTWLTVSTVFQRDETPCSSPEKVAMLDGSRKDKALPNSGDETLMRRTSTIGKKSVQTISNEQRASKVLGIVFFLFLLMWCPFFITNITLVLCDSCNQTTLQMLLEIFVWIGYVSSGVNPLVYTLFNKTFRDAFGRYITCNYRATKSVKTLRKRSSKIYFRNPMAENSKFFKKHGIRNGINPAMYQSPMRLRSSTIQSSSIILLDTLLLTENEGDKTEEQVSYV
Norephinephrine transporter, sequence (P23975 whole entry): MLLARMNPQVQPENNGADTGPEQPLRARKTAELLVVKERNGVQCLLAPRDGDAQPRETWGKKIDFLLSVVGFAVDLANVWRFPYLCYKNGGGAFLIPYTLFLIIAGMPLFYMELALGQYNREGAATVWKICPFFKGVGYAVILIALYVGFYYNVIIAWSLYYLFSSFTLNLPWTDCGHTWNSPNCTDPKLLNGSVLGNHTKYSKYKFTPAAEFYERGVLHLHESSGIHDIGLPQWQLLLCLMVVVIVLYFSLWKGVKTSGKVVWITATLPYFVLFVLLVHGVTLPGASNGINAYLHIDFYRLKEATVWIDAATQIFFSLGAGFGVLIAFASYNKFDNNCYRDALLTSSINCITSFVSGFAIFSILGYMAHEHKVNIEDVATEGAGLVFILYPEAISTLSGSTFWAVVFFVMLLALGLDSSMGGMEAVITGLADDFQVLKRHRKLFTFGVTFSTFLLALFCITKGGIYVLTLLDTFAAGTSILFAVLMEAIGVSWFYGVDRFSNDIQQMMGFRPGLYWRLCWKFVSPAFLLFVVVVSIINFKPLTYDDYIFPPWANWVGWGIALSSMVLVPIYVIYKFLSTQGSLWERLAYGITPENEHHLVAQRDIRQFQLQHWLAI
Transporter, Dopamine (DAT), sequence (Q01959 whole entry): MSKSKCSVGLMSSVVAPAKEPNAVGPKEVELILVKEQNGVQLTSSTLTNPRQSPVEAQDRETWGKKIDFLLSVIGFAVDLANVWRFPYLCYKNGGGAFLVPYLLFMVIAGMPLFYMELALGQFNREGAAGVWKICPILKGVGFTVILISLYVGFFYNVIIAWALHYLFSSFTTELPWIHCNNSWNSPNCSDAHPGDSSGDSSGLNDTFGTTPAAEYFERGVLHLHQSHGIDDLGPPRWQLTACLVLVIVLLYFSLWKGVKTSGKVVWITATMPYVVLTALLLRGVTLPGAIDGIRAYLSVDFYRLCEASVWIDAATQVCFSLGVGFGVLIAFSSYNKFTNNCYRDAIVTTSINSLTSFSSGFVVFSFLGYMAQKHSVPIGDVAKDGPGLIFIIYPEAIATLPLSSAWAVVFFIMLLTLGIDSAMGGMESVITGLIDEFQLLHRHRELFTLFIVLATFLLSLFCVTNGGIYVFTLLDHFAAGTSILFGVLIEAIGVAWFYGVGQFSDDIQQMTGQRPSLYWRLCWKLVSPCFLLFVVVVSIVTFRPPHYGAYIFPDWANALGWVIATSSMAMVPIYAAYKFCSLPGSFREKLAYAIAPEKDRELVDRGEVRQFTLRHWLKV
EP2, sequence (P43116 whole entry): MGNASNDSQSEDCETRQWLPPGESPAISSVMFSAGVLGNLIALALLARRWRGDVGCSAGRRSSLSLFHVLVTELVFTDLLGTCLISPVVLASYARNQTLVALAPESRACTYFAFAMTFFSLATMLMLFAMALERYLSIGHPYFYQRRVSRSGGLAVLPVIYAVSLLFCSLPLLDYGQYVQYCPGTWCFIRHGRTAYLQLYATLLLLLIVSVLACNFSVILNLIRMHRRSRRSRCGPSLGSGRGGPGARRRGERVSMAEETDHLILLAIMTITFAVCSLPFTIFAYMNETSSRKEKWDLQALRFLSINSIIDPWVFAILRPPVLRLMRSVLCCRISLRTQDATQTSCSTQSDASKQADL
Serotonin (5-Hydroxytryptamine) 5-HT2A, sequence (P28223 whole entry): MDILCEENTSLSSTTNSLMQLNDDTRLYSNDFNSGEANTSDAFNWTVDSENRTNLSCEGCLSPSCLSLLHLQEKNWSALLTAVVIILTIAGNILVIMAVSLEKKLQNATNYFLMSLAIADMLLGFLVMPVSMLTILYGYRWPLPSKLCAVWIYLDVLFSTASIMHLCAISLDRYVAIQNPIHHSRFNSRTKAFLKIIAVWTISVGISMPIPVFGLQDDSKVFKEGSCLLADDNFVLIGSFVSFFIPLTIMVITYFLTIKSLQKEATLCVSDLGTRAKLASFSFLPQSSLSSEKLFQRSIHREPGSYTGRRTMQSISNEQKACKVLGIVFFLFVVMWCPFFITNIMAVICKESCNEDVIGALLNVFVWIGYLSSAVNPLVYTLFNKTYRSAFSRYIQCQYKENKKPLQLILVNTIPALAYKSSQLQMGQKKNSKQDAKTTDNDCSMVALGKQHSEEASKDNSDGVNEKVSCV
Cyclooxygenase 1, sequence (P23219 24-599, species assumed): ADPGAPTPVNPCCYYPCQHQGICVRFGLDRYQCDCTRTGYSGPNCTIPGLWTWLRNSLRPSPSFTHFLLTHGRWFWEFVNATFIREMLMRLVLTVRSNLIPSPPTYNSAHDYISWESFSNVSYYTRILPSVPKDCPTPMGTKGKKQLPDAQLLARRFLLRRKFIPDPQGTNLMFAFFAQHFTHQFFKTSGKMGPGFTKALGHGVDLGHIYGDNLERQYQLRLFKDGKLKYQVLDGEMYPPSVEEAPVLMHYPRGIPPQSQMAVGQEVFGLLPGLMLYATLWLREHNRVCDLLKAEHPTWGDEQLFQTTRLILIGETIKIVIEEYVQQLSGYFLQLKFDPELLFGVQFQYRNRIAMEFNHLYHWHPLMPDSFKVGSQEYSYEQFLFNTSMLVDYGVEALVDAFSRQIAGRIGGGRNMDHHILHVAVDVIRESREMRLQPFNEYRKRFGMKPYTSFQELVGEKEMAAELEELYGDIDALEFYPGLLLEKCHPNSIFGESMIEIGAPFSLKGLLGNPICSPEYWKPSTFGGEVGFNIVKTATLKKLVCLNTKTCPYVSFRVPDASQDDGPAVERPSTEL

O=C(c1ccc(Cl)cc1)N(Cc1ccccc1)C1CCCCC1 [FPS-ZM1, N-Benzyl-N-cyclohexyl-4-chlorobenzamide]
inhibition at 10 µM (BZD (peripheral)): 85%
% Inhibition (BZD (central)): 59%
inhibition at 10 µM (Adenosine A3): 64%
% Inhibition [1]: 62%
IC50 (Melatonin MT1): 1500 nM
Ki (Melatonin MT1): 1200 nM
inhibition at 10 µM (Melatonin MT1): 54%
inhibition at 10 µM (AR): 88%
IC50 (Melatonin MT2): 7 µM
Ki (Melatonin MT2): 4400 nM
inhibition at 10 µM (Melatonin MT2): 54%

COc1ccc2[nH]cc(CCNC(C)=O)c2c1 [Melatonin]
change in radioligand uptake, maximal SUV, TAC shape vs baseline (blocking) ([2]; 5 μg/kg i.v. 10 min prior to [18F]RAGER): did not reveal any decrease
maximal SUV or TAC shape vs baseline (displacement) ([2]; 10 μg/kg i.v. 40 min into the 90 min scan): did not differ significantly
displacement of [18F]RAGER [3]: not able to displace
effect on [18F]RAGER uptake or washout compared to baseline [4]: no effect

COc1cc(NC(C)=O)c(Cl)cc1C(=O)Nc1nccs1 [InRAGER2, 4-Acetamido-5-chloro-2-methoxy-N-(thiazol-2-yl)benzamide]
IC50 (UT): 1400 nM
Ki (UT): 1 µM
inhibition at 10 µM (UT): 85%
IC50 (BZD (peripheral)): 480 nM
Ki (BZD (peripheral)): 0.44 µM
inhibition at 10 µM (BZD (peripheral)): 81%
Kd (ctRAGE): 0.3 ± 0.05 nM
IC50 (Cyclooxygenase 1): 12 µM
IC50 (Adenosine A3): 1400 nM
Ki (Adenosine A3): 830 nM
inhibition at 10 µM (Adenosine A3): 75%
IC50 [5]: 260 nM
Ki [5]: 130 nM
inhibition at 10 µM [5]: 95%

Oc1cccc(Nc2nc(-c3ccc(F)cc3F)cs2)c1 [InRAGER, 3-((4-(2,4-difluorophenyl)thiazol-2-yl)amino)phenol]
Ki [6]: 7.8 µM
IC50 (UT): 1400 nM
Ki (UT): 8.9 µM
inhibition at 10 µM (UT): 78%
IC50 (BZD (peripheral)): 480 nM
Ki (BZD (peripheral)): 12 µM
Ki [7]: 1500 nM
inhibition at 10 µM ([7]; 10 μM, Norephinephrine transporter, Human): 95%
Kd (ctRAGE): 1 ± 0.5 nM
Ki (EP2): 2300 nM
inhibition at 10 µM (EP2; 10 μM, EP2, Human): 74%
Ki (Adenosine A3): 24 nM
inhibition at 10 µM (Adenosine A3): 99%
IC50 [5]: 260 nM
Ki [5]: 550 nM
inhibition at 10 µM [5]: 97%

O=C(c1ccc(F)cc1)N(Cc1ccccc1)C1CCCCC1 [RAGER, N-Benzyl-N-cyclohexyl-4-fluorobenzamide]
Ki (Androgen (Testosterone)): 2600 nM
inhibition at 10 µM (Androgen (Testosterone)): 59%
Ki [8]: 6.8 µM
inhibition at 10 µM [8]: 52%
experimental log P [9]: 3.5
Ki [10]: 8.5 µM
inhibition at 10 µM ([10]; read-out: %Inhibition at 10 μM): 64%
Ki (Melatonin MT1): 93 nM
inhibition at 10 µM (Melatonin MT1): 96%
Ki (Melatonin MT2): 700 nM
inhibition at 10 µM (Melatonin MT2): 82%
